From patent US20060063764A1, “Insect repellents” (Givaudan SA, priority 2002, published 2006)
Values joined by “and” are separate entries in the source; they are usually repeats but may differ in a detail not shown here. Identical values can stand only once.

System: German cockroaches (Blatella Germanica)
Test: Cockroach repellency on partially treated melamine-formaldehyde laminate surface (harbourage choice test)
Type: in vivo
Conditions: 20 mg/m^2; for Percentage Present on treated section, Average / Percentage Present on untreated section, Average: Average of days 1, 2, 3; for Number of Cockroaches present, Treated Section / Number of Cockroaches present, Untreated Section / Number of Cockroaches, Dead: single replicate, n = 20; for Number of Cockroaches present, Treated Section, Total of 4 replicates / Number of Cockroaches present, Untreated Section, Total of 4 replicates / Number of Cockroaches, Dead, Total of 4 replicates: total of 80
Description: The effectiveness of compounds of formula I as insect repellents is determined using German cockroaches exposed to a melamine-formaldehyde laminate surface partially treated/partially untreated with a test compound of formula I.
The study was conducted in an air-conditioned laboratory at a temperature of 22°±2° ° C. under a normal day/night cycle, using German cockroaches (Blatella Germanica) of mixed sex and age. The study was conducted over a 3 day period and the repellent effectiveness was assessed 1, 2 and 3 days after cockroach introduction.
One half of a rectangle of laminate 40 cm×30 cm was treated at 20 mg/m^2 of a test compound of formula I. This was achieved by soaking a paper wipe (“Rag on a Roll” ca 20 cm×20 cm) in a solution of the test compound in ethanol, squeezing out the excess liquid and wiping over the surface to give the required coverage. This was checked by weighing the cloth after application. The surface was allowed to dry. The other half of the rectangle was wiped with ethanol alone (untreated surface).
The treated laminate rectangle was placed on the bench and a plastic container was placed on the rectangle. This had been treated with “Fluon” (trade mark), a sprayable fluoropolymer, to prevent cockroach escape.
Two sheets of laminate (10 cm×10 cm) were placed on the laminate, one on the treated surface and one on the untreated surface. This acted as a cockroach harbourage. The laminate sheet to be used in the treated section was treated at the same rate as the treated laminate. The laminate was placed on two 1 cm high bottle tops to allow cockroaches access under the laminate.
20 German cockroaches were added (5 adults and 15 nymphs) to the centre of the laminate. No food and water was supplied for these cockroaches.
At 1, 2 and 3 days after cockroach introduction the number of cockroaches under each harbourage was counted. After each count the harbourage position was changed to avoid the possibility of habituation to one location, the harbourages were replaced and new cockroaches were added to replace any dead cockroaches.
The above was repeated 3 times to provide a total of 4 replicates.
The methodology of Example 2 was repeated for all of the compounds set forth in Example 1.

[1] = 1 day after cockroach introduction
[2] = 2 days after cockroach introduction
[3] = 3 days after cockroach introduction

Row | SMILES | Percentage Present on treated section (1 day after treatment) | Percentage Present on untreated section (1 day after treatment) | Percentage Present on treated section (2 days after treatment) | Percentage Present on untreated section (2 days after treatment) | Percentage Present on treated section (3 days after treatment) | Percentage Present on untreated section (3 days after treatment) | Percentage Present on treated section, Average | Percentage Present on untreated section, Average | also measured
1 | CCN(CC)C(=O)O[C@@H]1C[C@H](C)CC[C@H]1C(C)C | 7.6% | 92.4% | 2.5% | 97.5% | 2.5% | 97.5% | 4.2% | 95.8% | 
2 | CC(C)[C@@H]1CC[C@@H](C)C[C@H]1OC(=O)Nc1ccccc1 | 2.5% | 97.5% | 3.7% | 96.3% | 2.5% | 97.5% | 2.9% | 97.1% | 
3 | CC(C)[C@@H]1CC[C@@H](C)C[C@H]1OC(=O)N1CCCC1 | 2.5% | 97.5% | 7.5% | 92.5% | 12.7% | 87.3% | 7.6% | 92.4% | 
4 | CC(C)[C@@H]1CC[C@@H](C)C[C@H]1OC(=O)N1CCOCC1 | 17.5% | 82.5% | 17.5% | 82.5% | 25.0% | 75.0% | 20.0% | 80.0% | 
5 | CC(C)[C@@H]1CC[C@@H](C)C[C@H]1OC(=O)N1CCCCC1 | 10.0% | 90.0% | 11.3% | 88.7% | 3.9% | 96.1% | 8.4% | 91.6% | 
6 | CC(C)CNC(=O)O[C@@H]1C[C@H](C)CC[C@H]1C(C)C | 31.3% | 68.7% | 17.5% | 82.5% | 16.3% | 83.7% | 21.7% | 78.3% | 
7 | CCCCNC(=O)O[C@@H]1C[C@H](C)CC[C@H]1C(C)C | 6.3% | 93.7% | 17.5% | 82.5% | 7.5% | 92.5% | 10.5% | 89.6% | 
8 | COC(=O)CCNC(=O)O[C@@H]1C[C@H](C)CC[C@H]1C(C)C | 11.4% | 88.6% | 2.5% | 97.5% | 10.0% | 90.0% | 8.0% | 92.0% | 
9 | CNC(=O)O[C@@H]1C[C@H](C)CC[C@H]1C(C)C [Methyl-Carbamic Acid (−)-Menthyl Ester, Methyl-carbamic acid (−)-menthyl ester] |  |  |  |  |  |  |  |  | Number of Cockroaches present, Treated Section [1]: 0 (2×) and 3 and 1; Number of Cockroaches present, Untreated Section [1]: 20 and 19 (2×) and 17; Number of Cockroaches, Dead [1]: 0 (3×) and 1; Number of Cockroaches present, Treated Section, Total of 4 replicates [1]: 4; Number of Cockroaches present, Untreated Section, Total of 4 replicates [1]: 75; Number of Cockroaches, Dead, Total of 4 replicates [1]: 1; Number of Cockroaches present, Treated Section [2]: 1 (2×) and 0 (2×); Number of Cockroaches present, Untreated Section [2]: 19 (3×) and 20; Number of Cockroaches, Dead [2]: 0 (3×) and 1; Number of Cockroaches present, Treated Section, Total of 4 replicates [2]: 2; Number of Cockroaches present, Untreated Section, Total of 4 replicates [2]: 77; Number of Cockroaches, Dead, Total of 4 replicates [2]: 1; Number of Cockroaches present, Treated Section [3]: 0 (3×) and 1; Number of Cockroaches present, Untreated Section [3]: 20 (3×) and 19; Number of Cockroaches, Dead [3]: 0; Number of Cockroaches present, Treated Section, Total of 4 replicates [3]: 1; Number of Cockroaches present, Untreated Section, Total of 4 replicates [3]: 79; Number of Cockroaches, Dead, Total of 4 replicates [3]: 0
10 | CNC(=O)O[C@@H]1C[C@H](C)CC[C@H]1C(C)C [drawing 13] | 5.1% | 94.9% | 2.5% | 97.5% | 1.3% | 98.7% | 3.0% | 97.0% | 
